Reference: ChEMBL document CHEMBL1127910, “Structural basis for the differential RXR & RAR activity of stilbene retinoid analogs” (Bioorg Med Chem Lett, 1994)

What was measured:
[1] = target: T1, Retinoic acid receptor beta (Homo sapiens, UniProt P10826); assay: Transcriptional activation for RAR beta receptor
T1 sequence (P10826 whole entry): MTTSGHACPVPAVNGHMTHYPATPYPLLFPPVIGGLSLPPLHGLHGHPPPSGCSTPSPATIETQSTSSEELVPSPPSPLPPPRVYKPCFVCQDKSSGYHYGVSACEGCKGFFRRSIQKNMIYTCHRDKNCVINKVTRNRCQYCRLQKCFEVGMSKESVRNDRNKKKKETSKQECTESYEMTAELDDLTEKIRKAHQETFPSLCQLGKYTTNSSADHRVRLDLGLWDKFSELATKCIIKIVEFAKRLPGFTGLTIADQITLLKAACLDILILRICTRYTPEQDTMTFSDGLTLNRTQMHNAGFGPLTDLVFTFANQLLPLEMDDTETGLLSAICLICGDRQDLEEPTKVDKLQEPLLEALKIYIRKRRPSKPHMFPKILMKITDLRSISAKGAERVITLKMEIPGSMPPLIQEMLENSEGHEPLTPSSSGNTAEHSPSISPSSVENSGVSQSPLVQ

[2] = target: T2, Retinoic acid receptor gamma (Homo sapiens, UniProt P13631); assay: Transcriptional activation for RAR gamma receptor
T2 sequence (P13631 whole entry): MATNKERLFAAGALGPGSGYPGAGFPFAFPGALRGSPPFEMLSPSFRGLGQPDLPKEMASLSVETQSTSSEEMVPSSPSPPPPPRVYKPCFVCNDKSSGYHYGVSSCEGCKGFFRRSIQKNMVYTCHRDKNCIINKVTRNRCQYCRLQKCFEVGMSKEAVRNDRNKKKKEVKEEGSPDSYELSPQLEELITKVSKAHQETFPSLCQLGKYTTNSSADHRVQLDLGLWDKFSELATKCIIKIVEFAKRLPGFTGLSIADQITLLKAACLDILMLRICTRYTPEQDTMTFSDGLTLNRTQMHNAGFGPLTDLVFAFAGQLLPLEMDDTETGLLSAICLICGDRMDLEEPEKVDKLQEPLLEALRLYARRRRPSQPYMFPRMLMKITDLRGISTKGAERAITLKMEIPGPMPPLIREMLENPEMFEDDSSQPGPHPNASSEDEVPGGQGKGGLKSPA

[3] = target: T3, Retinoic acid receptor RXR-alpha (Homo sapiens, UniProt P19793)
T3 sequence (P19793 whole entry): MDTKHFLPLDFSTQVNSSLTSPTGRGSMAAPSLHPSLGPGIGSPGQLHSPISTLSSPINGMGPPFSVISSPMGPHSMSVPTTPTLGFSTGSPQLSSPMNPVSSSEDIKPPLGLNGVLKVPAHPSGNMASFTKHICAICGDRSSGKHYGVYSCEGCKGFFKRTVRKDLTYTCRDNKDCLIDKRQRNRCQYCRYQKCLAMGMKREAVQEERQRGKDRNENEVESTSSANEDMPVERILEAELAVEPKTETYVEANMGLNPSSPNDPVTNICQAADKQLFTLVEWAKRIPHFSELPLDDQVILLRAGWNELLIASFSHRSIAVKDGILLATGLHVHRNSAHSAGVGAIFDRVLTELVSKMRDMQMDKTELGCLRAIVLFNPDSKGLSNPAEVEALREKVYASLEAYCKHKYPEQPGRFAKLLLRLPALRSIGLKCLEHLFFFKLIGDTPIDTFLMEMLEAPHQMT

[4] = target: T4, Retinoic acid receptor alpha (Homo sapiens, UniProt P10276); assay: Transcriptional activation for RAR alpha receptor
T4 sequence (P10276 whole entry): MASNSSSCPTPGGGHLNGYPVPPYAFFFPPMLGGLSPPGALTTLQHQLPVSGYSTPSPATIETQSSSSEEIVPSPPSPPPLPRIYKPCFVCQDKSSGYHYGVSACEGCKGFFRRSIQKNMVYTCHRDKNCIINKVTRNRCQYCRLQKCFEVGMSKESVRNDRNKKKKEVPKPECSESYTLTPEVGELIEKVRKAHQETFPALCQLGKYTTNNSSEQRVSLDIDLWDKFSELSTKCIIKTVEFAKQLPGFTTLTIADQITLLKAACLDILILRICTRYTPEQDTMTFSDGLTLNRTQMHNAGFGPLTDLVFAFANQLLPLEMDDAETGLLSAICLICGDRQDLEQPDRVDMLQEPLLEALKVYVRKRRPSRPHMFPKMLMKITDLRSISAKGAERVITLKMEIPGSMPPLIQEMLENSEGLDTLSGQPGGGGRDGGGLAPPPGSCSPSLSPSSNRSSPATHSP

[5] = target: T2, Retinoic acid receptor gamma; assay: Transcriptional activation for RAR gamma receptor; not active (EC50>10e4 nM)
[6] = target: T1, Retinoic acid receptor beta; assay: Transcriptional activation for RAR beta receptor; not active (EC50>10e4 nM)
[7] = target: T3, Retinoic acid receptor RXR-alpha; assay: Transcriptional activation for RXR alpha receptor
[8] = target: T4, Retinoic acid receptor alpha; assay: Transcriptional activation for RAR alpha receptor; not active (EC50>10e4 nM)

| SMILES | EC50 [1] [nM] | EC50 [2] [nM] | EC50 [3] | EC50 [4] [nM] | EC50 [5] | EC50 [6] | EC50 [7] [nM] | EC50 [8] |
| --- | --- | --- | --- | --- | --- | --- | --- | --- |
| CC(=Cc1ccc(C(=O)O)cc1)c1cc2c(cc1C)C(C)(C)CCC2(C)C | – | – | – | – | Not Active | Not Active | > 6400 | Not Active |
| C/C(=C\c1ccc(C(=O)O)cc1)c1ccc2c(c1)C(C)(C)CCC2(C)C | – | – | Not Active | – | – | – | – | – |
| C/C(=C\c1ccc(C(=O)O)cc1)c1cc2c(cc1Br)C(C)(C)CCC2(C)C | 21 | 91 | – | 989 | – | – | 298 | – |
| CCc1cc2c(cc1/C(C)=C/c1ccc(C(=O)O)cc1)C(C)(C)CCC2(C)C | 961 | 195 | – | – | – | – | 2220 | Not Active |
| C/C(=C\c1ccc(C(=O)O)cc1)c1cc2c(cc1C)C(C)(C)CCC2(C)C | 74 | 152 | – | 4580 | – | – | 385 | – |

Further compounds by falling EC50 [1], results first:

| EC50 [1] [nM] | EC50 [2] [nM] | EC50 [3] | EC50 [4] [nM] | EC50 [5] | EC50 [6] | EC50 [7] [nM] | EC50 [8] | SMILES |
| --- | --- | --- | --- | --- | --- | --- | --- | --- |
| 21 | 77 | – | > 1000 | – | – | 275 | – | C/C(=C\c1ccc(C(=O)O)cc1)c1cc2c(cc1Cl)C(C)(C)CCC2(C)C |
| 0.5 | 0.4 | Not Active | 24 | – | – | – | – | C/C(=C\c1ccc2c(c1)C(C)(C)CCC2(C)C)c1ccc(C(=O)O)cc1 |
| 0.4 | 0.4 | Not Active | 11 | – | – | – | – | CC1(C)CCC(C)(C)c2cc(/C=C/c3ccc(C(=O)O)cc3)ccc21 |
| 0.4 | 1.4 | Not Active | 15 | – | – | – | – | Cc1cc2c(cc1/C=C/c1ccc(C(=O)O)cc1)C(C)(C)CCC2(C)C |
